Experimental findings from ChEMBL document CHEMBL1201862, “PubChem BioAssay data set” (2004) are described below.

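Protocol summary: plate cells (96-well), add compound at 5 concentrations, incubate 48 h, interpolate endpoints linearly. GI50 = concentration required for 50% inhibition of growth.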 Calls of active or inactive are those of the source. Rule as the data show it: active = GI50 up to about 1.1 µM and inactive = higher. *1 amine or outer side, *2 acyl side, *3 side chain or, on linkers, in order; H or OH if unused. Where a SMILES comes first, the peptide text is derived from it. Bridges are numbered along the chain shown (N, C = ends). Roman numbers before positions name the chains, in order. [ ]: non-standard residue; d: D form. Actinocin(9to1) = Cc1c2oc3c(C)ccc(C(=O)[*:1])c3nc-2c(C(=O)[*:2])c(N)c1=O; NMeV = CN[CH](C(=O)O)C(C)C; Sar = CNCC(=O)O

Among the test systems are A498; A549; CAKI-1; HCC 2998; HCT-116; M14; MOLT-4; NCI-H226; NCI-H23; OVCAR-3; OVCAR-4; RPMI-8226; RXF 393; SF-268; SF-539; SK-MEL-5; SW-620; U-251; UACC-62; HOP-92.
Common to all, as to test: growth of human tumour cells (NCI), 48 h

As for `Cc1c2oc3c(C)ccc(C(=O)NC4C(=O)NC(C(C)O)C(=O)N5CCCC5C(=O)N(C)CC(=O)N(C)C(C(C)C)C(=O)OC4C)c3nc-2c(C(=O)NC2C(=O)NC(C(C)O)C(=O)N3CCCC3C(=O)N(C)CC(=O)N(C)C(C(C)C)C(=O)OC2C)c(N)c1=O` (configuration not stated) (I: TTP[Sar][NMeV] / II: TTP[Sar][NMeV]; ester I:1-I:C, II:1-II:C; linker I:N-II:N via Actinocin(9to1); configuration not given here), the GI50 in the assay with A498 is 0.774 µM (active); with A549 it was 0.783 µM (active); with CAKI-1 it was 4.07 µM (inactive); with HCC 2998, 1.54 µM (inactive); with HCT-116, 0.0456 µM (active); in the assay on M14 it was 0.811 µM (active). The GI50 is 0.0527 µM (active) in the assay on MOLT-4; 0.0344 µM (active) in the assay with NCI-H226; 0.274 µM (active) with NCI-H23; 0.28 µM (active) in the assay on OVCAR-3; 0.931 µM (active) with OVCAR-4; 0.0365 µM (active) in the assay on RPMI-8226. Also, the GI50 in the assay on RXF 393 is 0.0946 µM (active); in the assay on SF-268, 0.198 µM (active); in the assay on SF-539, 0.0764 µM (active); in the assay on SK-MEL-5, 0.167 µM (active); with SW-620 it was 0.067 µM (active); in the assay on U-251, 0.0904 µM (active). Moreover, in the assay with UACC-62, the GI50 is 0.103 µM (active).

On to `CC1(CO)COS(=O)OC1` (configuration not stated), for which the GI50 in the assay on A498 was 1.89 µM (inactive); in the assay with A549 it was > 100 µM (inactive); with HCC 2998 it was > 100 µM (inactive); in the assay with HCT-116, > 100 µM (inactive); with HOP-92, > 100 µM (inactive); in the assay on MOLT-4, > 100 µM (inactive). For the same molecule, the GI50 with NCI-H226, with NCI-H23, in the assay with OVCAR-3, in the assay with OVCAR-4, with RXF 393 and in the assay with SF-268 was > 100 µM (inactive) each time. In addition, the GI50 in the assay on SK-MEL-5, with SW-620 and in the assay with U-251 was > 100 µM (inactive) each time.

Take `CC1=C2c3ccccc3N(C(=O)/C=C/C(=O)O)[C@H]2[C@H]2C(=O)OC(=O)[C@H]2C1`: the GI50 in the assay with A498, in the assay on A549, in the assay on CAKI-1, with HCC 2998, in the assay on HCT-116 and in the assay on M14 was > 10 µM (inactive) each time. Moreover, the GI50 with MOLT-4, in the assay on NCI-H226, in the assay on NCI-H23, in the assay with OVCAR-3, in the assay on OVCAR-4 and in the assay with RPMI-8226 was > 10 µM (inactive) throughout. Also, the GI50 in the assay with RXF 393, in the assay on SF-268, in the assay on SF-539, in the assay with SK-MEL-5, in the assay on SW-620 and in the assay with U-251 was > 10 µM (inactive) each time. Besides, in the assay on UACC-62, the GI50 was > 10 µM (inactive).

On to `CN(C)N1C(=O)C(=O)N(c2cccc3ccccc23)C1=O`, for which the GI50 in the assay with A498, with A549, in the assay on CAKI-1, in the assay with HCC 2998, with HCT-116 and in the assay with M14 was > 10 µM (inactive) in each case. The GI50 in the assay with MOLT-4, in the assay on NCI-H226, with NCI-H23, with OVCAR-3, in the assay on OVCAR-4 and in the assay on RPMI-8226 was > 10 µM (inactive) in each case. Moreover, the GI50 in the assay on RXF 393, in the assay on SF-268, with SF-539, with SK-MEL-5, in the assay with SW-620 and in the assay with U-251 was > 10 µM (inactive) throughout. Also, the GI50 with UACC-62 is > 10 µM (inactive).
